From patent US20240041830A1, “CIRCULATING BIOMARKERS OF RESPONSE TO PD-1/PD-L1 BLOCKADE AND GSK-3 INHIBITION” (Brown University, priority 2022, published 2024)

Experiments:
Type in all cases: cell-based, human
[1] = test system: HCT-116; test: microarray analysis; settings: HCT-116 by context; 24 hours vs untreated
Method: Microarrays. A total of 0.5×10^6 tumor cells (HCT-116, HT-29, KM12C) were plated in a 6-well plate and allowed to adhere overnight before 24-hour treatment, as indicated. Then, 1×10^6 immune cells (NK92, TALL-104) were plated and treated with elraglusib as indicated for twenty-four h. RNA was isolated from cell pellets in batches of six using a RNeasy Plus Mini Kit (Cat #74134, Qiagen, Hilden, Germany). Acceptable RNA concentration and quality were verified with Nanodrop and Bioanalyzer measurements. GeneChip™ Human Transcriptome Array 2.0 assays were conducted according to manufacturer instructions in two batches using randomized samples to limit batch effects (Cat #902162, Applied Biosystems, Waltham, MA, USA). Applied Biosystems Transcriptomic Analysis Console (TAC) software (RRID: SCR_016519) was used to calculate fold changes in gene expression relative to the untreated control cells. Values were considered statistically significant for p values<0.05.
The inventors then utilized microarray analysis to gain insights into gene expression changes in colorectal cancer cell lines post-GSK-3 inhibition with elraglusib. Several colorectal cancer cell lines (HCT-116, HT-29, KM12C) were treated with elraglusib at IC-50 concentrations or DMSO as vehicle control for twenty-four hours. Treated versus untreated samples were compared in triplicate using microarray analysis FIG. 10. Results were calculated using a fold change (FC) cutoff of >1.5, <−1.5, and a minimum p-value of<0.05. HCT-116 cells had 340 differentially expressed genes post-treatment. FIG. 2C.

[2] = test system: TALL-104; test: Luminex cytokine profiling of cell culture supernatant
Method: (§1) Collection of cell culture supernatants used in cytokine measurements. Cells were plated at 3.5×10^4 cells in a 48-well plate (Thermo Fisher Scientific, Waltham, MA, USA) in complete medium and incubated at 37° C. with 5% CO2. At twenty-four hours after plating, almost all the tumor cells were adherent to the bottom of the flask and the complete medium was replaced with the drug-containing medium. Subsequently, the culture supernatants were collected after forty-eight hours of incubation and were frozen at −80° C. until the measurement of cytokines was performed. On the day of analysis, samples were thawed and centrifuged to remove cellular debris.
(§2) Human cytokine profiling. Human cell line culture supernatants were analyzed using an R&D systems Human Premixed Multi-Analyte Kit (R&D Systems, Inc., Minneapolis, MN, USA) and a Luminex 200 (RRID: SCR_018025) Instrument (LX200-XPON-RUO, Luminex Corporation, Austin, TX, USA) according to the manufacturer's instructions. Sample levels of TNF-α, 4-1BB/TNFRSF9/CD137, IL-8/CXCL8, Ferritin, IFN-β, IL-10, CCL2/JE/MCP-1, VEGF, CXCL13/BLC/BCA-1, IFN-γ, CCL20/MIP-3 α, CCL3/MIP-1 α, CCL22/MDC, CCL4/MIP-1 β, Fas Ligand/TNFSF6, IL-17/1L-17A, IL-2, BAFF/BLyS/TNFSF13B, GM-CSF, CXCLS/ENA-78, TRANCE/TNFSF11/RANK L, CXCL9/MIG, G-CSF, IFN-γ R1/CD119, VEGFR3/Flt-4, C-Reactive Protein/CRP, CXCL11/I-TAC, IL-21, CXCL14/BRAK, IL-6, Fas/TNFRSF6/CD95, TRAIL R3/TNFRSF10C, IL-4, CCL5/RANTES, PD-L1/137-H1, CCL7/MCP-3/MARC, Chitinase 3-like 1, CXCL10/IP-10/CRG-2, IL-1 μ/IL-1F2, IL-7, Prolactin, CCL8/MCP-2, TRAIL R2/TNFRSF10B, M-CSF, IL-15, Granzyme B, IFN-α, TREM-1, IL-12/1L-23 p40, TRAIL/TNFSF10, CCL11/Eotaxin, and 1L-18/1L-1F4. Quantitative analysis with 6 standards and a minimum of 50 counts per bead region was used with the Luminex to generate analyte values reported as picograms/milliliter (pg/mL). Sample concentrations less than the lower limit of detection for each particular analyte were recoded as the lower limit value divided by 10. Sample concentrations above the upper limit of detection for a particular analyte were recoded as the upper limit of detection.
(§3) Saos-2 osteosarcoma and 93T449 liposarcoma cell lines were pretreated at IC50 with elraglusib. The cells were harvested for Western blot analysis after 48 hours of treatment. Both cancer cell lines as well as TALL-104 T-cells and NK-92 NK cells were treated with 0.5 μM elraglusib for twenty-four hours and harvested for Luminex cytokine profiling.
(§4) Because the previously observed non-canonical NF-κB pathway activation enhances the expression of immune cell chemotactic chemokines and cytokines, the inventors determine how elraglusib treatment impacts the immune cell secretome. TALL-104 and NK-92 cells were treated with 1 μM elraglusib for forty-eight hours before cell culture supernatant was collected for cytokine profile analysis.

[3] = test system: NK-92; test: as above
Method: as §1, §2, §3, §4

[4] = test system: TALL-104; test: Western blot analysis; settings: as treatment duration increased (0-72 hours)
Method: Western blot analysis. Cells were plated in a 6-well plate and incubated overnight before the spent media was replaced with drugged media. Drug treatment lasted for indicated durations. Protein was extracted using radioimmunoprecipitation (RIPA) assay buffer (Cat #R0278, Sigma-Aldrich, St. Louis, MO, USA) containing cOmplete™, Mini, EDTA-free Protease Inhibitor Cocktail (Cat #4693159001, Roche, Basel, Switzerland) from sub-confluent cells. Denaturing sample buffer was added, samples were boiled at 95° C. for ten minutes, and an equal amount of protein lysate was electrophoresed through NuPAGE™ 4 to 12%, bis-Tris, 1.5 mm, Mini Protein Gels (Invitrogen, Waltham, MA, USA) then transferred to PVDF membranes. The PVDF membrane was blocked with 5% non-fat milk (Sigma-Aldrich, St. Louis, MO, USA) in 1× TTBS. Primary antibodies were incubated with the transferred PVDF membrane in blocking buffer at 4° C. overnight. […] The signal was detected using Pierce™ ECL Western Blotting Substrate (Cat #32106, Thermo Scientific, Waltham, MA, USA) and a Syngene Imaging System (RRID: SCR_015770).
Elraglusib enhances immune cell effector function. the inventors next analyzed immune cell lines (TALL-104, NK-92) using western blot analysis.

`Cn1cc(C2=C(c3coc4ccc(F)cc34)C(=O)NC2=O)c2cc3c(cc21)OCO3` [elraglusib] showed a CMTM4 fold change [1] of −1.84, an NEK2 fold change [1] of −2.21 and a PPP1R1C fold change [1] of 1.78. For the same molecule, the CXCL11 ([2]; 0.5 μM, twenty-four hours) was “increase”, the IL-18 ([2]; 0.5 μM, twenty-four hours) was “increased level” and the IFN-γ concentration ([2]; 1 μM, forty-eight hours) was “increases”. The TRAIL concentration ([2]; 1 μM, forty-eight hours) was “increases”, the “granzyme B concentration” value ([2]; 1 μM, forty-eight hours) was “increases” and the “IFN-γ in cell culture supernatants” value ([2]; twenty-four hours) was “significant increase”. For the same molecule, the IL-8 chemokine ([3]; 0.5 μM, twenty-four hours) was “increase”, the “soluble TRAIL (TRAIL/TNFSF10)” value ([3]; 0.5 μM, twenty-four hours) was “increase” and the IFN-γ concentration ([3]; 1 μM, forty-eight hours) was “increases”. The TRAIL concentration ([3]; 1 μM, forty-eight hours) was “increases”, the “secreted granzyme B concentration” value ([3]; 1 μM, forty-eight hours) was “decreases” and the “IFN-γ in cell culture supernatants” value ([3]; twenty-four hours, effect smaller than in TALL-104) was “significant increase”. For the same molecule, the Bcl-2 expression [4] was “did not notice significant changes” and the NF-κB expression [4] was “did not notice significant changes”.
